Assay results reported in ChEMBL document CHEMBL1201862, “PubChem BioAssay data set” (2004).
Values joined by “and” are separate entries in the source; they are usually repeats but may differ in a detail not shown here. Equal entries are not always repeated.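 Interpolation was linear, between the two tested concentrations surrounding the appropriate level; five concentrations were tested over 48 hours in 96-well plates. The concentration for 50% growth inhibition is given as GI50.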 Active and inactive are the calls of the source. Cut-off read from the data, not from the text of the source: active = GI50 up to about 1.1 µM and inactive = higher.

Columns and labels:
Assay in all cases: growth of human tumour cells (NCI), 48 h
M19-MEL = system: M19-MEL
OVCAR-5 = system: OVCAR-5
NCI-H460 = system: NCI-H460
SF-268 = system: SF-268
HOP-62 = system: HOP-62
Malme-3M = system: Malme-3M
SK-MEL-5 = system: SK-MEL-5
NCI-H23 = system: NCI-H23
DMS-273 = system: DMS-273
ACHN = system: ACHN
SW-620 = system: SW-620
SK-OV-3 = system: SK-OV-3
UACC-62 = system: UACC-62
K562 = system: K562
DLD-1 = system: DLD-1
HT-29 = system: HT-29
U-251 = system: U-251
RXF 393 = system: RXF 393
TK-10 = system: TK-10
SN12C = system: SN12C
M14 = system: M14
HCT-15 = system: HCT-15
MOLT-4 = system: MOLT-4
DMS-114 = system: DMS-114
COLO 205 = system: COLO 205
SNB-19 = system: SNB-19
HCT-116 = system: HCT-116
HL-60 = system: HL-60
OVCAR-3 = system: OVCAR-3
SF-295 = system: SF-295
786-0 = system: 786-0
KM12 = system: KM12
HOP-18 = system: HOP-18
CCRF-CEM = system: CCRF-CEM
SNB-75 = system: SNB-75
SK-MEL-2 = system: SK-MEL-2
UACC-257 = system: UACC-257
HCC 2998 = system: HCC 2998
OVCAR-8 = system: OVCAR-8
A498 = system: A498
SNB-78 = system: SNB-78
CAKI-1 = system: CAKI-1
SK-MEL-28 = system: SK-MEL-28
OVCAR-4 = system: OVCAR-4
HOP-92 = system: HOP-92
A549 = system: A549
SF-539 = system: SF-539
RXF 631 = system: RXF 631
NCI-H226 = system: NCI-H226
IGROV-1 = system: IGROV-1
UO-31 = system: UO-31
EKVX = system: EKVX
LOX IMVI = system: LOX IMVI
XF498 = system: XF498
SR = system: SR
LXFL 529 = system: LXFL 529
RPMI-8226 = system: RPMI-8226
KM-20L2 = system: KM-20L2
NCI-H522 = system: NCI-H522

## COC1C(CN[N+](=O)CC2OC3OC(C)(C)OC3C2OC)OC2OC(C)(C)OC21 (stereo not drawn)
M19-MEL
  GI50: > 100 µM (inactive)
OVCAR-5
  GI50: > 100 µM (inactive)
NCI-H460
  GI50: > 100 µM (inactive)
SF-268
  GI50: > 100 µM (inactive)
HOP-62
  GI50: > 100 µM (inactive)
Malme-3M
  GI50: > 100 µM (inactive)
SK-MEL-5
  GI50: > 100 µM (inactive)
NCI-H23
  GI50: > 100 µM (inactive)
DMS-273
  GI50: > 100 µM (inactive)
ACHN
  GI50: > 100 µM (inactive)
SW-620
  GI50: > 100 µM (inactive)
SK-OV-3
  GI50: > 100 µM (inactive)
UACC-62
  GI50: > 100 µM (inactive)
K562
  GI50: > 10 µM (inactive)
DLD-1
  GI50: > 100 µM (inactive)
HT-29
  GI50: > 100 µM (inactive)
U-251
  GI50: > 100 µM (inactive)
RXF 393
  GI50: > 100 µM (inactive)
TK-10
  GI50: > 100 µM (inactive)
SN12C
  GI50: > 100 µM (inactive)
M14
  GI50: > 100 µM (inactive)
HCT-15
  GI50: > 100 µM
MOLT-4
  GI50: > 100 µM (inactive)
DMS-114
  GI50: > 100 µM (inactive)
COLO 205
  GI50: > 100 µM (inactive)
SNB-19
  GI50: > 100 µM (inactive)
HCT-116
  GI50: > 100 µM (inactive)
HL-60
  GI50: > 100 µM (inactive)
OVCAR-3
  GI50: > 100 µM (inactive)
SF-295
  GI50: > 100 µM (inactive)
786-0
  GI50: > 100 µM (inactive)
KM12
  GI50: > 100 µM (inactive)
HOP-18
  GI50: > 100 µM (inactive)
CCRF-CEM
  GI50: > 100 µM (inactive)
SNB-75
  GI50: > 100 µM (inactive)
SK-MEL-2
  GI50: > 100 µM (inactive)
UACC-257
  GI50: > 100 µM (inactive)
HCC 2998
  GI50: > 100 µM (inactive)
OVCAR-8
  GI50: > 100 µM (inactive)
A498
  GI50: > 100 µM (inactive)
SNB-78
  GI50: > 100 µM (inactive)
CAKI-1
  GI50: > 100 µM (inactive)
SK-MEL-28
  GI50: > 100 µM (inactive)
OVCAR-4
  GI50: > 100 µM (inactive)
HOP-92
  GI50: > 100 µM (inactive)
A549
  GI50: > 100 µM (inactive)
SF-539
  GI50: > 100 µM (inactive)
RXF 631
  GI50: > 100 µM (inactive)
NCI-H226
  GI50: > 100 µM (inactive)
IGROV-1
  GI50: > 100 µM (inactive)
UO-31
  GI50: > 100 µM (inactive)
EKVX
  GI50: > 100 µM (inactive)
LOX IMVI
  GI50: > 100 µM (inactive)

## CCOC(=O)C(C(=O)OCC)=C1N[C@H](C(=O)OCC)CS1
M19-MEL
  GI50: > 100 µM (inactive)
OVCAR-5
  GI50: > 100 µM (inactive)
NCI-H460
  GI50: > 100 µM (inactive)
SF-268
  GI50: > 100 µM (inactive)
HOP-62
  GI50: > 100 µM (inactive)
Malme-3M
  GI50: > 100 µM (inactive)
SK-MEL-5
  GI50: > 100 µM (inactive)
NCI-H23
  GI50: > 100 µM (inactive)
ACHN
  GI50: > 100 µM (inactive)
SW-620
  GI50: > 100 µM (inactive)
UACC-62
  GI50: > 100 µM (inactive)
K562
  GI50: > 100 µM (inactive)
DLD-1
  GI50: > 100 µM (inactive)
HT-29
  GI50: > 100 µM (inactive)
U-251
  GI50: > 100 µM (inactive)
RXF 393
  GI50: > 100 µM (inactive)
SN12C
  GI50: > 100 µM (inactive)
M14
  GI50: > 100 µM (inactive)
HCT-15
  GI50: > 100 µM
XF498
  GI50: > 100 µM (inactive)
MOLT-4
  GI50: > 100 µM (inactive)
COLO 205
  GI50: > 100 µM (inactive)
SNB-19
  GI50: > 100 µM (inactive)
HCT-116
  GI50: > 100 µM (inactive)
HL-60
  GI50: > 100 µM (inactive)
OVCAR-3
  GI50: > 100 µM (inactive)
SF-295
  GI50: > 100 µM (inactive)
786-0
  GI50: > 100 µM (inactive)
KM12
  GI50: > 100 µM (inactive)
HOP-18
  GI50: > 100 µM (inactive)
CCRF-CEM
  GI50: > 100 µM (inactive)
SK-MEL-2
  GI50: > 100 µM (inactive)
UACC-257
  GI50: > 100 µM (inactive)
HCC 2998
  GI50: > 100 µM (inactive)
OVCAR-8
  GI50: > 100 µM (inactive)
SNB-78
  GI50: > 100 µM (inactive)
CAKI-1
  GI50: > 100 µM (inactive)
SK-MEL-28
  GI50: > 100 µM (inactive)
SR
  GI50: > 100 µM (inactive)
OVCAR-4
  GI50: > 100 µM (inactive)
LXFL 529
  GI50: > 100 µM (inactive)
RPMI-8226
  GI50: > 100 µM (inactive)
A549
  GI50: > 100 µM (inactive)
SF-539
  GI50: > 100 µM (inactive)
RXF 631
  GI50: > 100 µM (inactive)
NCI-H226
  GI50: 80.5 µM (inactive)
KM-20L2
  GI50: > 100 µM (inactive)
IGROV-1
  GI50: > 100 µM (inactive)
NCI-H522
  GI50: > 100 µM (inactive)
UO-31
  GI50: > 100 µM (inactive)
EKVX
  GI50: > 100 µM (inactive)
LOX IMVI
  GI50: > 100 µM (inactive)

## Cc1cc(Cl)cc2c1NC(=O)C2(O)C(C(=O)c1ccccc1)c1ccccc1 (stereo not drawn)
M19-MEL
  GI50: 3.4 µM (inactive)
OVCAR-5
  GI50: > 100 µM (inactive)
HOP-62
  GI50: 82 µM (inactive) and 47.3 µM (inactive)
SK-MEL-5
  GI50: 21.2 µM (inactive)
NCI-H23
  GI50: 52.5 µM (inactive) and 38.6 µM (inactive)
DMS-273
  GI50: 55.8 µM (inactive)
SW-620
  GI50: 44.7 µM (inactive) and 76 µM (inactive)
SK-OV-3
  GI50: 56.6 µM (inactive)
UACC-62
  GI50: 17.3 µM (inactive)
K562
  GI50: 33.5 µM (inactive)
DLD-1
  GI50: 53.8 µM (inactive) and 42.3 µM (inactive)
HT-29
  GI50: 35.2 µM (inactive) and 39.8 µM (inactive)
TK-10
  GI50: > 100 µM (inactive) and 84.7 µM (inactive)
HCT-15
  GI50: 71.3 µM and 46.7 µM
XF498
  GI50: 36.4 µM (inactive) and 28.7 µM (inactive)
MOLT-4
  GI50: 16 µM (inactive)
DMS-114
  GI50: 22.9 µM (inactive) and 25.6 µM (inactive)
SNB-19
  GI50: 77.6 µM (inactive)
HCT-116
  GI50: 23.4 µM (inactive)
HL-60
  GI50: 20.1 µM (inactive)
SF-295
  GI50: 45.7 µM (inactive) and 67.8 µM (inactive)
KM12
  GI50: 47.6 µM (inactive) and 60.4 µM (inactive)
CCRF-CEM
  GI50: 26.7 µM (inactive)
SNB-75
  GI50: 24.7 µM (inactive) and 21.7 µM (inactive)
SK-MEL-2
  GI50: 44.8 µM (inactive) and 32.3 µM (inactive)
HCC 2998
  GI50: 23.9 µM (inactive) and 29.9 µM (inactive)
A498
  GI50: 27.7 µM (inactive)
SNB-78
  GI50: 41.8 µM (inactive) and 56.6 µM (inactive)
OVCAR-4
  GI50: 20.4 µM (inactive) and 35.5 µM (inactive)
RPMI-8226
  GI50: 17.4 µM (inactive) and 22.9 µM (inactive)
SF-539
  GI50: 21 µM (inactive)
RXF 631
  GI50: 37.8 µM (inactive) and 70.1 µM (inactive)
NCI-H226
  GI50: 36.4 µM (inactive) and 27.3 µM (inactive)
KM-20L2
  GI50: 88.9 µM (inactive)
IGROV-1
  GI50: 26.2 µM (inactive)
NCI-H522
  GI50: 36.5 µM (inactive)
EKVX
  GI50: 49.8 µM (inactive) and 67.8 µM (inactive)
LOX IMVI
  GI50: 19.3 µM (inactive) and 33 µM (inactive)
